Laboratory results taken from patent US8921376B2, “Pyrrolopyridines useful as inhibitors of protein kinase” (Vertex Pharmaceuticals Incorporated, priority 2005, dated 2014).
pKi: −log10 of the molar value.

What was measured:
Assay type in all cases: biochemical
[1] = molecular target: T1, JAK3 (Homo sapiens, UniProt P52333); test: JAK3 inhibition assay (33P incorporation into poly(Glu)4Tyr)
T1 sequence (P52333 1-1124): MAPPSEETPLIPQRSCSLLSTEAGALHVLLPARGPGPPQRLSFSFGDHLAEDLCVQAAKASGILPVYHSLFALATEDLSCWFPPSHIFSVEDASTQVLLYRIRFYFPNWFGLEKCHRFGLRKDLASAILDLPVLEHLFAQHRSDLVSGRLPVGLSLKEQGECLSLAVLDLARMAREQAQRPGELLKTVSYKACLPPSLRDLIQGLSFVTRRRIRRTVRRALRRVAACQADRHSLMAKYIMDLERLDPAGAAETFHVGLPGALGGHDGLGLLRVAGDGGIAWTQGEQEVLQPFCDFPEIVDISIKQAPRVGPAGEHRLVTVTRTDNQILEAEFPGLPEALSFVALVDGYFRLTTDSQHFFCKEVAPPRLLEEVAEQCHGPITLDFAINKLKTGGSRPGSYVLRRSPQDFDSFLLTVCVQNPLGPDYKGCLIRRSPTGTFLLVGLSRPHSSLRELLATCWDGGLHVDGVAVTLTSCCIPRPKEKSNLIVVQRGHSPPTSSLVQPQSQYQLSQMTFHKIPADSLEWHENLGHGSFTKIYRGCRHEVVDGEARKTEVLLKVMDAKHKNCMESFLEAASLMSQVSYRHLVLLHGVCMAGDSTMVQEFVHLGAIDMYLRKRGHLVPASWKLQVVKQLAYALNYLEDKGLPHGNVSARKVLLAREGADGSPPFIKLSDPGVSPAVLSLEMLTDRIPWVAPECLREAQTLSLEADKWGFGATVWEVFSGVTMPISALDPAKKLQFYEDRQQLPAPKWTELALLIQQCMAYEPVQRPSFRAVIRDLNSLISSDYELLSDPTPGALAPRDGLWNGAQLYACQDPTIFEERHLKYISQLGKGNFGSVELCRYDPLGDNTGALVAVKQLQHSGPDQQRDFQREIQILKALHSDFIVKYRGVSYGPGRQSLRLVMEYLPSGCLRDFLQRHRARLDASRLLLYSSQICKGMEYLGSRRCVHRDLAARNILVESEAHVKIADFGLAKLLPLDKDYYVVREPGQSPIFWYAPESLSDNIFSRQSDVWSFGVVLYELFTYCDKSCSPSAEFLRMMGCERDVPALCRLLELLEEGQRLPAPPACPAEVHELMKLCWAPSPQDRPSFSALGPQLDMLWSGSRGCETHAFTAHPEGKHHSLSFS
Procedure, shortened: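 After TCA quench and filter harvest, scintillation counting of 33P measured phosphorylation of poly(Glu)4Tyr (1 μM) by 1 nM JAK3. The 20-min, 25° C. reaction contained 5 μM ATP (200 μCi/μmole) in pH 7.4 HEPES buffer with 10 mM MgCl2.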

[2] = molecular target: JAK2 (Homo sapiens, UniProt O60674); test: JAK2 inhibition assay (as Example 3 with JAK-2 enzyme)
Procedure, shortened: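 In HEPES pH 7.4 buffer with 10 mM MgCl2, 1 mM DTT, 25 mM NaCl and 0.01% BSA, JAK2 enzyme phosphorylated poly(Glu)4Tyr (final 15 μM) using 33P-ATP (final 12 μM) for 20 min at room temperature (25 °C). Reactions stopped with TCA; incorporated 33P measured by scintillation after filtration.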

[3] = molecular target: ROCK I (Homo sapiens, UniProt Q13464); test: ROCK-I inhibition assay (radioactive enzyme assay, MBP substrate)
Procedure, shortened: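 Human ROCK at 5 nM phosphorylated 27 μM myelin basic protein with 13 μM [γ-33P]ATP (final) in HEPES pH 7.5, MgCl2, NaCl, DTT and 1.5% DMSO. Reactions ran 2 h at room temperature before TCA quench and filter-plate scintillation counting. After background subtraction, data were fit to give Ki(app).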

[4] = Table 6, enzyme inhibition data (Ki)
[5] = enzyme inhibition, Ki(app), Table 5

Sequence of ROCK I (Q13464 whole entry): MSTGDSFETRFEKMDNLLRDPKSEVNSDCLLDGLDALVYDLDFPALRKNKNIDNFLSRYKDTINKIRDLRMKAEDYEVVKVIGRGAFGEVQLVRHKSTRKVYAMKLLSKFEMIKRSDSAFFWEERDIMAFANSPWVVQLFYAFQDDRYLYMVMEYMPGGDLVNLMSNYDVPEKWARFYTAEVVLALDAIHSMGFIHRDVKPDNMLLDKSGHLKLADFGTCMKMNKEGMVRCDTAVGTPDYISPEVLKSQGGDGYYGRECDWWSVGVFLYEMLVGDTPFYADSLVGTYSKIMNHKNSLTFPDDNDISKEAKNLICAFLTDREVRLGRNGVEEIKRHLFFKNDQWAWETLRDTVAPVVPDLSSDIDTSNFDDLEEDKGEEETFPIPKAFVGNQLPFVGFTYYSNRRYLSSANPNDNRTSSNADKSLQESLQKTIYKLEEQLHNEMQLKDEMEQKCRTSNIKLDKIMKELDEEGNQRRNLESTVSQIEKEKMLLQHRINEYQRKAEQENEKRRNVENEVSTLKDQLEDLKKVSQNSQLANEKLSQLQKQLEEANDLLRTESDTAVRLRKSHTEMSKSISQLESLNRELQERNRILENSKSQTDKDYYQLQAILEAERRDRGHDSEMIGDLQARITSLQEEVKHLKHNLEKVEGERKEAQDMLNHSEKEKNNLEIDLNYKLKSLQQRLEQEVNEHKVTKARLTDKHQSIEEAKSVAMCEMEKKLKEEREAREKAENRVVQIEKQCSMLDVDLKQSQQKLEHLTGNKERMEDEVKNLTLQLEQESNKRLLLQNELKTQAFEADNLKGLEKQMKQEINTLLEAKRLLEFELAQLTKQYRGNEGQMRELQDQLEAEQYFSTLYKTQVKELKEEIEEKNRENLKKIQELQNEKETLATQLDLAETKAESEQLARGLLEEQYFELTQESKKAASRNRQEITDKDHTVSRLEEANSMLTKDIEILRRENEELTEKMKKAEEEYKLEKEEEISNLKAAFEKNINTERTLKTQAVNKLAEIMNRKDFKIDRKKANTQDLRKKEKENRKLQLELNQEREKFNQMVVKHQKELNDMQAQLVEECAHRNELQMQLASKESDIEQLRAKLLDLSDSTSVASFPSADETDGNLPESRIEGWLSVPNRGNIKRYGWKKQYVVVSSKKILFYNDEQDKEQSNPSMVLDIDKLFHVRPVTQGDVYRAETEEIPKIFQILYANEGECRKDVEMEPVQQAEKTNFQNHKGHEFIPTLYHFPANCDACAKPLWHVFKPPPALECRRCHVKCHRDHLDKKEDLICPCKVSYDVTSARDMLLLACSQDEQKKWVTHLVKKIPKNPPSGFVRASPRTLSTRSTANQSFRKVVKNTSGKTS
Sequence of JAK2 (O60674 whole entry): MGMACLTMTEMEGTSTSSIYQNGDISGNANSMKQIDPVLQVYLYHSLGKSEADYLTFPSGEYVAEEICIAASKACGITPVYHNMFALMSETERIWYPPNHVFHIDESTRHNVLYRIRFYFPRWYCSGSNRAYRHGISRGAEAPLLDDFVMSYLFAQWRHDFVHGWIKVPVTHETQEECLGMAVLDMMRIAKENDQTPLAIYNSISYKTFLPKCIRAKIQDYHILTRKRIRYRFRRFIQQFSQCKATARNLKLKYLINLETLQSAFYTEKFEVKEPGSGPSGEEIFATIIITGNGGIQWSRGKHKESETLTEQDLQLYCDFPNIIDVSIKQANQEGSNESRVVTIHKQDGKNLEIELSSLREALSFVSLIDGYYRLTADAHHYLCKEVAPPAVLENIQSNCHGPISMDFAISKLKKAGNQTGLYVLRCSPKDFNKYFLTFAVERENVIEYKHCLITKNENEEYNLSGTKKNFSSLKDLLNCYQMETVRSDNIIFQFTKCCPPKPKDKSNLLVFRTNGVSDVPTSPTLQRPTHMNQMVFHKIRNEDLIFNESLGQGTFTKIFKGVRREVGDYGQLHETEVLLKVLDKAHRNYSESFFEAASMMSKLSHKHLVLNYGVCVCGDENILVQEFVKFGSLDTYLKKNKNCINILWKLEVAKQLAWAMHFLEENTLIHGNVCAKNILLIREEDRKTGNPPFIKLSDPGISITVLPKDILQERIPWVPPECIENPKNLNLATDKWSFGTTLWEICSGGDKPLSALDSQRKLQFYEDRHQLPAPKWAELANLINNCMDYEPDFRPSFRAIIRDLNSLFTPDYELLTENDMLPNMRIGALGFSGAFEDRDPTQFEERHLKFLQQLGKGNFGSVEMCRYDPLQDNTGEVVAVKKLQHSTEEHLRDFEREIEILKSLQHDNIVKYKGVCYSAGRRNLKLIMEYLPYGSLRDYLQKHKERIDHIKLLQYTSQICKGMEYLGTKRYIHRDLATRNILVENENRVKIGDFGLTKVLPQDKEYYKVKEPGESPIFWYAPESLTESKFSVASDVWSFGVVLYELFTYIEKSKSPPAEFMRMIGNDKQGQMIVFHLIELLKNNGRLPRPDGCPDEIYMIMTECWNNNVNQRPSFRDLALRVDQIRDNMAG

Row | Structure (SMILES) | pKi [1, 4] | pKi [2, 4] | pKi [3, 4] | pKi ([1]; enzyme inhibition, Table 5) | pKi ([2]; enzyme inhibition, Table 5) | pKi [3, 5]
1 | CCN(CCC#N)C(=O)c1ccc(-c2ccnc3[nH]ccc23)s1 [compound 314] | > 6.30 | > 6.30 | > 6.30 |  |  | 
2 | CCCOc1ccccc1-c1ccnc2[nH]ccc12 [compound 234] | 5.30 to 6.30 | < 5.30 | < 5.40 |  |  | 
3 | c1cc(NCC2CCCO2)nc(-c2ccnc3[nH]ccc23)c1 (stereo not drawn) [compound 36, N-((tetrahydrofuran-2-yl)methyl)-6-(1H-pyrrolo[2,3-b]pyridin-4-yl)pyridin-2-amine] |  |  |  | 5.30 to 6.30 | 5.30 to 6.30 | 5.30 to 6.30
4 | CC(=O)N1CCCN(c2cccc(-c3c(Cl)cnc4[nH]ccc34)n2)CC1 [compound 76, 1-(4-(6-(5-Chloro-1H-pyrrolo[2,3-b]pyridin-4-yl)pyridin-2-yl)-1,4-diazepan-1-yl)ethanone] |  |  |  | > 6.30 | > 6.30 | 5.30 to 6.30
5 | CCOC(=O)c1cccc(-c2ccnc3[nH]ccc23)c1 [compound 46, 3-(1H-Pyrrolo[2,3-b]pyridin-4-yl)-benzoic acid ethyl ester] |  |  |  | 5.30 to 6.30 | 5.30 to 6.30 | 5.30 to 6.30
6 | CCCNC(=O)c1ccccc1-c1ccnc2[nH]ccc12 [compound 258] | < 5.30 | < 5.30 | < 5.40 |  |  | 
7 | O=C(O)c1ccccc1-c1ccnc2[nH]ccc12 [compound 238] | < 5.30 | < 5.30 | < 5.40 |  |  | 
8 | Clc1ccccc1-c1ccnc2[nH]ccc12 [compound 216] | 5.30 to 6.30 | 5.30 to 6.30 | 5.30 to 6.30 |  |  | 
9 | c1cc(CN2CCOCC2)cc(-c2ccnc3[nH]ccc23)c1 [compound 88, 4-(3-Morpholin-4-ylmethyl-phenyl)-1H-pyrrolo[2,3-b]pyridine] |  |  |  | 5.30 to 6.30 | 5.30 to 6.30 | 5.30 to 6.30
10 | CC(C)(CO)CNc1cccc(-c2ccnc3[nH]ccc23)n1 [compound 57, 3-(6-(1H-Pyrrolo[2,3-b]pyridin-4-yl)pyridin-2-ylamino)-2,2-dimethylpropan-1-ol] |  |  |  | < 5.30 | 5.30 to 6.30 | 5.30 to 6.30
11 | Cc1ccc(C(N)=O)cc1Nc1c(Cl)cnc2[nH]ccc12 [compound 160] | 5.30 to 6.30 | 5.30 to 6.30 | < 5.40 |  |  | 
12 | C[C@H](Nc1nc(-c2ccnc3[nH]ccc23)nc2ccccc12)C(=O)NCC(F)(F)F [compound 134] |  |  |  | 5.30 to 6.30 | < 5.30 | 5.30 to 6.30
13 | CCN(Cc1ccccc1)C(=O)c1cc(-c2c(Cl)cnc3[nH]ccc23)c[nH]1 [compound 344] | > 6.30 | > 6.30 | 5.30 to 6.30 |  |  | 
14 | O=C(NCC1CC1)c1csc(-c2ccnc3[nH]ccc23)n1 [compound 412] | > 6.30 | > 6.30 | 5.30 to 6.30 |  |  | 
15 | N#CCN(Cc1ccc(F)cc1)C(=O)c1cc(-c2c(F)cnc3[nH]ccc23)c[nH]1 [compound 400] | > 6.30 | > 6.30 | > 6.30 |  |  | 
16 | CCCN(CC1CC1)C(=O)c1ccc(-c2ccnc3[nH]ccc23)s1 [compound 319] | > 6.30 | > 6.30 | > 6.30 |  |  | 
17 | CC1CCCCN1C(=O)c1csc(-c2ccnc3[nH]ccc23)n1 (stereo not drawn) [compound 420] | > 6.30 | > 6.30 | > 6.30 |  |  | 
18 | c1cc(CNC2CC2)cc(-c2ccnc3[nH]ccc23)c1 [compound 86, Cyclopropyl-[3-(1H-pyrrolo[2,3-b]pyridin-4-yl)-benzyl]-amine] |  |  |  | 5.30 to 6.30 | 5.30 to 6.30 | > 6.30
19 | CN(Cc1cccnc1)C(=O)c1cc(-c2c(Cl)cnc3[nH]ccc23)c[nH]1 [compound 354] | > 6.30 | > 6.30 | 5.30 to 6.30 |  |  | 
20 | CS(=O)(=O)N1CC[C@@H](Nc2c(Cl)cnc3[nH]ccc23)C1 [compound 184] | > 6.30 | > 6.30 | 5.30 to 6.30 |  |  | 
21 | CN(C)Cc1cccc(-c2ccnc3[nH]ccc23)c1 [compound 85, Dimethyl-[3-(1H-pyrrolo[2,3-b]pyridin-4-yl)-benzyl]-amine] |  |  |  | > 6.30 | 5.30 to 6.30 | > 6.30

Row | Structure (SMILES) | pKi [1, 4] | pKi [2, 4] | pKi [3, 4] | pKi ([1]; enzyme inhibition, Table 5) | pKi ([2]; enzyme inhibition, Table 5) | pKi [3, 5]
22 | N#CCCN(Cc1ccccc1)C(=O)c1cc(-c2c(F)cnc3[nH]ccc23)c[nH]1 [compound 394] | > 6.30 | > 6.30 | > 6.30 |  |  | 
23 | O=C(NCCC(F)(F)F)c1cccc(-c2ccnc3[nH]ccc23)c1 [compound 252] | > 6.30 | 5.30 to 6.30 | 5.30 to 6.30 |  |  | 
24 | Clc1cnc2[nH]ccc2c1C1=CCCC1 [compound 28, 5-Chloro-4-cyclopentenyl-1H-pyrrolo[2,3b]pyridine] |  |  |  | > 6.30 | > 6.30 | 5.30 to 6.30
25 | CCN(Cc1ccncc1)C(=O)c1cc(-c2ccnc3[nH]ccc23)c[nH]1 [compound 369] | > 6.30 | > 6.30 | > 6.30 |  |  | 
26 | CCN(C)C(=O)c1cc(-c2ccnc3[nH]ccc23)c[nH]1 [compound 261] | > 6.30 | > 6.30 | > 6.30 |  |  | 
27 | NC(=O)c1ccccc1-c1ccnc2[nH]ccc12 [compound 380] | < 5.30 | < 5.30 | < 5.40 |  |  | 
28 | C#CCN(C)C(=O)c1cc(-c2ccnc3[nH]ccc23)c[nH]1 [compound 307] | > 6.30 | > 6.30 | > 6.30 |  |  | 
29 | Clc1cnc2[nH]ccc2c1Nc1cccc(-c2cnco2)c1 [compound 156] | > 6.30 | > 6.30 | < 5.40 |  |  | 
30 | O=C(CCNc1nc(-c2ccnc3[nH]ccc23)ncc1F)NCC(F)(F)F [compound 193] | 5.30 to 6.30 | 5.30 to 6.30 | < 5.40 |  |  | 
31 | CNc1ccccc1-c1ccnc2[nH]ccc12 [compound 381] | 5.30 to 6.30 | 5.30 to 6.30 | < 5.40 |  |  | 
32 | C[C@@H]1CC[C@@H](C)N1C(=O)c1csc(-c2ccnc3[nH]ccc23)n1 [compound 416] | > 6.30 | > 6.30 | > 6.30 |  |  | 
33 | O=C(NCC(F)(F)F)[C@H]1CCCN1c1nc(-c2ccnc3[nH]ccc23)ncc1F [compound 198] | 5.30 to 6.30 | 5.30 to 6.30 | < 5.40 |  |  | 
34 | CC(C)c1cccc(-c2ccnc3[nH]ccc23)c1 [compound 109, 4-(3-Isopropyl-phenyl)-1H-pyrrolo[2,3-b]pyridine] |  |  |  | > 6.30 | > 6.30 | > 6.30
35 | N#CCC(=O)N1CC[C@@H](Nc2c(Cl)cnc3[nH]ccc23)C1 [compound 190] | > 6.30 | > 6.30 | 5.30 to 6.30 |  |  | 
36 | N#Cc1ccc(Nc2c(Cl)cnc3[nH]ccc23)c(Cl)c1 [compound 163] | > 6.30 | > 6.30 | < 5.40 |  |  | 
37 | CCOc1cccc(-c2ccnc3[nH]ccc23)c1 [compound 249] | > 6.30 | > 6.30 | > 6.30 |  |  | 
38 | O=C(NC1CCC1)c1cc(-c2ccnc3[nH]ccc23)c[nH]1 [compound 287] | > 6.30 | > 6.30 | > 6.30 |  |  | 
39 | CC(C)[C@@H]1CC[C@@H](C)C[C@H]1Nc1c(Cl)cnc2[nH]ccc12 [compound 151] | 5.30 to 6.30 | 5.30 to 6.30 | < 5.40 |  |  | 
40 | CC(C)NC(=O)c1cc(-c2c(Cl)cnc3[nH]ccc23)c[nH]1 [compound 280] | > 6.30 | > 6.30 | 5.30 to 6.30 |  |  | 
41 | CN1CCCC1CCNc1cccc(-c2ccnc3[nH]ccc23)n1 (stereo not drawn) [compound 37, N-(2-(1-Methylpyrrolidin-2-yl)ethyl)-6-(1H-pyrrolo[2,3-b]pyridin-4-yl)pyridin-2-amine] |  |  |  | < 5.30 | < 5.30 | 5.30 to 6.30
42 | CC(=O)Nc1cccc(-c2ccnc3[nH]ccc23)c1 [compound 107, N-[3-(1H-Pyrrolo[2,3-b]pyridin-4-yl)-phenyl]-acetamide] |  |  |  | 5.30 to 6.30 | 5.30 to 6.30 | 5.30 to 6.30
